Earlier results, collected in patent US11136546B2, “Recombinant Escherichia coli and application of the same” (Zhengzhou Zhonghao Biological Technology Co., Ltd., priority 2018, dated 2021).
Where no end group is shown, it is not given here.

Assays:
pathogenic E. coli = conditions: in vitro bacteriostatic tests; a variety of pathogenic E. coli
Salmonella = conditions: in vitro bacteriostatic tests

Microcin J25: antibacterial lasso peptide consisting of 21 amino acids (SEQ ID No.: 4), obtained by fermentation of genetically engineered Escherichia coli (GGAGHVPEYFVGIGTPISFYG; also: lasso cyclisation, places not given here)
killing of pathogenic E. coli (pathogenic E. coli): able to kill | killing of Salmonella (Salmonella): able to kill
